Data as given in ChEMBL document CHEMBL1201862, “PubChem BioAssay data set” (2004).
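Each compound was tested at five concentrations against cells in 96-well plates for 48 hours. GI50 = concentration required for 50% inhibition of growth.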 The source made the active and inactive calls. No stated cut-off is given here; in the data, active = GI50 up to about 1.1 µM and inactive = higher.

Tests used:
Experiment in all cases: growth of human tumour cells (NCI), 48 h
[1] = test system: Hs-578T
[2] = test system: HCC 2998
[3] = test system: NCI/ADR-RES
[4] = test system: RXF 393
[5] = test system: IGROV-1
[6] = test system: SK-MEL-28
[7] = test system: CCRF-CEM
[8] = test system: SF-295
[9] = test system: A498
[10] = test system: MDA-MB-435
[11] = test system: U-251
[12] = test system: PC-3
[13] = test system: SF-268
[14] = test system: HCT-116
[15] = test system: SF-539
[16] = test system: NCI-H23
[17] = test system: ACHN
[18] = test system: HOP-62
[19] = test system: NCI-H226
[20] = test system: HCT-15
[21] = test system: M14
[22] = test system: MCF7
[23] = test system: Malme-3M
[24] = test system: T47D
[25] = test system: K562
[26] = test system: 786-0
[27] = test system: A549
[28] = test system: RPMI-8226
[29] = test system: SK-OV-3
[30] = test system: SK-MEL-2
[31] = test system: OVCAR-5
[32] = test system: TK-10
[33] = test system: SNB-19
[34] = test system: NCI-H522
[35] = test system: EKVX
[36] = test system: UACC-62
[37] = test system: UO-31
[38] = test system: SN12C
[39] = test system: SR
[40] = test system: OVCAR-3
[41] = test system: OVCAR-4
[42] = test system: MDA-N
[43] = test system: UACC-257
[44] = test system: SK-MEL-5
[45] = test system: HOP-92
[46] = test system: HT-29
[47] = test system: COLO 205
[48] = test system: BT-549
[49] = test system: HL-60
[50] = test system: MDA-MB-231
[51] = test system: DU-145
[52] = test system: CAKI-1
[53] = test system: NCI-H460
[54] = test system: KM12
[55] = test system: MOLT-4
[56] = test system: OVCAR-8
[57] = test system: SNB-75
[58] = test system: LOX IMVI
[59] = test system: SW-620

Compound: CC1=NN(c2nc(N)nc(/C(C#N)=C/c3ccccc3O)n2)C(C)(C)C1
- GI50 [1]: 16.3 µM (inactive)
- GI50 [2]: 19.5 µM (inactive)
- GI50 [3]: 21.4 µM (inactive)
- GI50 [4]: 20.2 µM (inactive)
- GI50 [5]: 23.1 µM (inactive)
- GI50 [6]: 16.7 µM (inactive)
- GI50 [7]: 18 µM (inactive)
- GI50 [8]: 15.6 µM (inactive)
- GI50 [9]: 24.7 µM (inactive)
- GI50 [10]: 17.3 µM (inactive)
- GI50 [11]: 18.4 µM (inactive)
- GI50 [12]: 16 µM (inactive)
- GI50 [13]: 18.2 µM (inactive)
- GI50 [14]: 18.3 µM (inactive)
- GI50 [15]: 16.9 µM (inactive)
- GI50 [16]: 16.8 µM (inactive)
- GI50 [17]: 18.5 µM (inactive)
- GI50 [18]: 20.5 µM (inactive)
- GI50 [19]: 17.3 µM (inactive)
- GI50 [20]: 19.4 µM
- GI50 [21]: 20.8 µM (inactive)
- GI50 [22]: 24.8 µM (inactive)
- GI50 [23]: 18.7 µM (inactive)
- GI50 [24]: 15.7 µM (inactive)
- GI50 [25]: 51.5 µM (inactive)
- GI50 [26]: 15.7 µM (inactive)
- GI50 [27]: 15.9 µM (inactive)
- GI50 [28]: 17 µM (inactive)
- GI50 [29]: 23.1 µM (inactive)
- GI50 [30]: 22.2 µM (inactive)
- GI50 [31]: 15.4 µM (inactive)
- GI50 [32]: 26.7 µM (inactive)
- GI50 [33]: 25.5 µM (inactive)
- GI50 [34]: 19.8 µM (inactive)
- GI50 [35]: 16 µM (inactive)
- GI50 [36]: 17.1 µM (inactive)
- GI50 [37]: 18.8 µM (inactive)
- GI50 [38]: 25.5 µM (inactive)
- GI50 [39]: 35.9 µM (inactive)
- GI50 [40]: 14.7 µM (inactive)
- GI50 [41]: 19 µM (inactive)
- GI50 [42]: 15.3 µM (inactive)
- GI50 [43]: 18.9 µM (inactive)
- GI50 [44]: 15.5 µM (inactive)
- GI50 [45]: 20.1 µM (inactive)
- GI50 [46]: 19.8 µM (inactive)
- GI50 [47]: 17.4 µM (inactive)
- GI50 [48]: 36.2 µM (inactive)
- GI50 [49]: 30.3 µM (inactive)
- GI50 [50]: 19.9 µM (inactive)
- GI50 [51]: 15.4 µM (inactive)
- GI50 [52]: 19.6 µM (inactive)
- GI50 [53]: 19.4 µM (inactive)
- GI50 [54]: 15.8 µM (inactive)
- GI50 [55]: 30.4 µM (inactive)
- GI50 [56]: 26.5 µM (inactive)

Compound: Cn1cnc(N)c(N=O)c1=O
- GI50 [1]: > 10 µM (inactive)
- GI50 [2]: > 10 µM (inactive)
- GI50 [3]: > 10 µM (inactive)
- GI50 [4]: > 10 µM (inactive)
- GI50 [5]: > 10 µM (inactive)
- GI50 [6]: > 10 µM (inactive)
- GI50 [7]: > 10 µM (inactive)
- GI50 [8]: > 10 µM (inactive)
- GI50 [9]: > 10 µM (inactive)
- GI50 [10]: > 10 µM (inactive)
- GI50 [11]: > 10 µM (inactive)
- GI50 [12]: > 10 µM (inactive)
- GI50 [13]: > 10 µM (inactive)
- GI50 [14]: > 10 µM (inactive)
- GI50 [15]: > 10 µM (inactive)
- GI50 [16]: > 10 µM (inactive)
- GI50 [17]: > 10 µM (inactive)
- GI50 [18]: > 10 µM (inactive)
- GI50 [19]: > 10 µM (inactive)
- GI50 [20]: > 10 µM
- GI50 [21]: > 10 µM (inactive)
- GI50 [22]: > 10 µM (inactive)
- GI50 [23]: > 10 µM (inactive)
- GI50 [24]: > 10 µM (inactive)
- GI50 [25]: > 10 µM (inactive)
- GI50 [26]: > 10 µM (inactive)
- GI50 [27]: > 10 µM (inactive)
- GI50 [28]: > 10 µM (inactive)
- GI50 [29]: > 10 µM (inactive)
- GI50 [30]: > 10 µM (inactive)
- GI50 [31]: > 10 µM (inactive)
- GI50 [32]: > 10 µM (inactive)
- GI50 [33]: > 10 µM (inactive)
- GI50 [34]: > 10 µM (inactive)
- GI50 [35]: > 10 µM (inactive)
- GI50 [36]: > 10 µM (inactive)
- GI50 [57]: > 10 µM (inactive)
- GI50 [38]: > 10 µM (inactive)
- GI50 [39]: > 10 µM (inactive)
- GI50 [40]: > 10 µM (inactive)
- GI50 [41]: > 10 µM (inactive)
- GI50 [58]: > 10 µM (inactive)
- GI50 [42]: > 10 µM (inactive)
- GI50 [43]: > 10 µM (inactive)
- GI50 [44]: > 10 µM (inactive)
- GI50 [59]: > 10 µM (inactive)
- GI50 [46]: > 10 µM (inactive)
- GI50 [47]: > 10 µM (inactive)
- GI50 [48]: > 10 µM (inactive)
- GI50 [49]: > 10 µM (inactive)
- GI50 [50]: > 10 µM (inactive)
- GI50 [51]: > 10 µM (inactive)
- GI50 [52]: > 10 µM (inactive)
- GI50 [53]: > 10 µM (inactive)
- GI50 [54]: > 10 µM (inactive)
- GI50 [55]: > 10 µM (inactive)
- GI50 [56]: > 10 µM (inactive)
